The source of these data is patent publication US20210363591A1, “MAPK1 MUTATIONS AND DRUG SENSITIVITY” (The Chinese University of Hong Kong, priority 2020, published 2021).

One assay concerns FaDu-MAPK1 WT xenografts. The experiment in a line: Erlotinib response of isogenic FaDu tumor xenografts expressing MAPK1-WT in nude mice.
Assay [1] deals with MAPK1p.D321N mutant tumors (FaDu xenografts). Put plainly: Erlotinib response of isogenic FaDu tumor xenografts expressing MAPK1 p.D321N in nude mice.
From the text: (§1) FaDu cells expressing MAPK1 WT, MAPK1 p.D321N and MAPK1 p.R135K respectively were inoculated into nude mice subcutaneously (8×10^5 cells per inoculation). Mice with tumor expressing respective MAPK1 WT/mutations were randomized into erlotinib (erlotinib dissolved in 10% 2-Hydroxypropyl-beta-cyclodextrin (HP-j-CD) or vehicle (10% HP-β-CD) treatment groups (N=8 tumors per group). Treatment started when tumors were palpable and reached the size ˜3×3-4×4 mm^2. Erlotinib or the vehicle control were administered by oral gavage (50 mg/kg erlotinib or the corresponding vehicle amount) for 5 consecutive days as indicated by the arrows on the X-axis. FIG. 2B: IHC staining showing membranous p-EGFR expression of these xenografts post erlotinib/vehicle treatments (N>3 per group). […] FIG. 2C: IHC staining showing corresponding pan-cytokeratin expression in these tumors post erlotinib/vehicle treatment (N>3 per group).
(§2) The VECTASTAIN Elite ABC Universal PLUS Kit Peroxidase (Horse Anti-Mouse/Rabbit IgG) (Cat: PKK-8200) was used for IHC. Cytokeratin mouse antibody (DAKO, Cat: M3515, 1:500) and Anti-EGFR (phosphor Y1173) antibody [E124] (Abcam, Cat: ab32578, 1:100) were used as primary antibodies.
(§3) Isogenic FaDu cells were infected with MAPK1-WT and MAPK1 mutants by retrovirus and injected into nude mice subcutaneously (8×10^5 cell per mouse, age of 4-5 weeks). Mice injected with respective infected FaDu cells were randomized into Erlotinib treatment group or Vehicle group (2 tumors born by each mice, 4 mice per group). Treatment started at day 6 after injection with 6 dose per week until day 15. Erlotinib (dissolved in 10% HP-j-CD) or vehicle control were administered orally at a dose of 50 mg/kg. Tumor volume was monitored and calculated by the equation: length×width^2/2 repeatedly for 5 consecutive days as indicated by the arrows on the X-axis of FIG. 2(a). The mice were sacrifice at the end-point of the experiment.
The subject of assay [2] is MAPK1p.R135K mutant xenografts (FaDu). The experiment in a line: Erlotinib response of isogenic FaDu tumor xenografts expressing MAPK1 p.R135K in nude mice.
From the text: as §1, §2, §3

From the text for FaDu-MAPK1 WT xenografts: as §1
The VECTASTAIN Elite ABC Universal PLUS Kit Peroxidase (Horse Anti-Mouse/Rabbit IgG) (Cat: PKK-8200) was used for IHC. […]
Isogenic FaDu cells were infected with MAPK1-WT and MAPK1 mutants by retrovirus and injected into nude mice subcutaneously (8×10^5 cell per mouse, age of 4-5 weeks). […] Tumor volume was monitored and calculated by the equation: length×width^2/2 repeatedly for 5 consecutive days as indicated by the arrows on the X-axis of FIG. 2(a). […]

As for `C#Cc1cccc(Nc2ncnc3cc(OCCOC)c(OCCOC)cc23)c1` [erlotinib], in the assay on FaDu-MAPK1 WT xenografts (erlotinib 50 mg/kg oral gavage, P=0.4080), the “change in tumor size vs. vehicle control” value is “did not result in any change in tumor size”. Further, the “change in membranous p-EGFR signal in the tumors (IHC)” value in the assay with FaDu-MAPK1 WT xenografts (erlotinib 50 mg/kg oral, vs. vehicle control) is reported as “did not result in any change”. Also, the “tumor-negative (cytokeratin-negative) areas (IHC)” value in assay [1] (MAPK1p.D321N FaDu xenografts post erlotinib 50 mg/kg oral) is recorded as “concomitant increases in tumor-negative areas”; in assay [2] (MAPK1p.R135K FaDu xenografts post erlotinib 50 mg/kg oral), “noticeable increases in tumor-negative areas”. For the same compound, in assay [1] (MAPK1p.D321N FaDu xenografts post erlotinib 50 mg/kg oral, untreated mutants 80-90% positive cells), the “membranous p-EGFR signals remaining in the tumors (IHC)” value was “less than 20%”. For the same compound, the “reduction in tumor volume vs. vehicle treatment” value in assay [1] (MAPK1p.D321N FaDu xenografts, erlotinib 50 mg/kg oral gavage, P=0.0037) is given as 60.3%. In addition, the “percent tumor cells bearing membranous p-EGFR staining (IHC)” value in assay [2] (MAPK1p.R135K FaDu xenografts post erlotinib 50 mg/kg oral, 90% in vehicle treated tumors) was 50%. In addition, in assay [2] (MAPK1p.R135K FaDu xenografts, erlotinib 50 mg/kg oral gavage, trend, P=0.0646), the “tumor size reduction vs. vehicle treatment” value was found to be 28.0%.
